In publication PMC6095608 (PLoS ONE, 2018):

What was measured:
OCT2 and MATE1 = assay: Transcellular transport assay across doubly transfected MDCK-OCT2-MATE1 monolayers; assay type: cell-based, human; details: 10 μM efavirenz, 2 h
Procedure: Transport experiments employing polarized monolayers of MDCK-OCT1, MDCK-OCT2, or MDCK-MATE1 cell lines as well as doubly transfected MDCK-OCT1-MATE1 or MDCK-OCT2-MATE1 lines and the non-transfected parental control MDCK-Co cells grown on Transwell 3402 cell culture inserts (3.0 μm pore size, 24 mm diameter; Costar, Corning, NY) were performed as described previously. The number of cells per well was 0.5 x 10^6 in all experiments, and the cells were incubated for 3 days to confluence in standard cultivation medium MEM (Gibco) + 10% FBS. After 3 days’ cultivation, medium was removed from both sides and the cells of the monolayer were washed using pre-warmed PBS. […] The pH of the medium on the basolateral side was 7.4, while that on the apical side was set to 6.0 (adjusted by adding HCl or NaOH, when necessary) to ensure optimal MATE1 transport activity. Cells were incubated at 37°C in 5% CO2 for 2 hours. At the end of the incubation period, 50 μl aliquots were sampled and the rest of the medium was immediately removed. The cells were then washed twice with ice-cold PBS, the membranes supporting cellular monolayers were excised, and the cells were dissolved in a 0.02% SDS solution. The radioactivity of the collected samples and lysed monolayers was measured by liquid scintillation counting (Tri-Carb 2910 TR Perkin Elmer), and the protein concentration of the cell lysates was quantified using the BCA protein assay. Transport rates were recorded in pmol per mg protein in the cellular monolayer.

MDCK-Co cells = assay: Transcellular transport assay across control MDCK-Co monolayers; assay type: cell-based, canine; details: 10 μM efavirenz, 2 nM MPP+, 2 h
Procedure: Transport experiments employing polarized monolayers of MDCK-OCT1, MDCK-OCT2, or MDCK-MATE1 cell lines as well as doubly transfected MDCK-OCT1-MATE1 or MDCK-OCT2-MATE1 lines and the non-transfected parental control MDCK-Co cells grown on Transwell 3402 cell culture inserts (3.0 μm pore size, 24 mm diameter; Costar, Corning, NY) were performed as described previously. The number of cells per well was 0.5 x 10^6 in all experiments, and the cells were incubated for 3 days to confluence in standard cultivation medium MEM (Gibco) + 10% FBS. After 3 days’ cultivation, medium was removed from both sides and the cells of the monolayer were washed using pre-warmed PBS. Experiments were initiated by adding HBSS buffer containing 10 mM HEPES (pH 7.4) or 10 mM MES (pH 6.0) with or without [^3H]-lamivudine (10 nM) or [^3H]-MPP^+ (2 nM) to either the apical or basolateral compartment. The pH of the medium on the basolateral side was 7.4, while that on the apical side was set to 6.0 (adjusted by adding HCl or NaOH, when necessary) to ensure optimal MATE1 transport activity. Cells were incubated at 37°C in 5% CO2 for 2 hours. At the end of the incubation period, 50 μl aliquots were sampled and the rest of the medium was immediately removed. […] Transport rates were recorded in pmol per mg protein in the cellular monolayer.

[1] = cited from earlier work
OCT2 = molecular target: T1, OCT2 (Homo sapiens, UniProt O15244); assay: Inhibition of net [14C]-metformin uptake in MDCK-OCT2 cells; assay type: cell-based; details: 50 μM metformin, 5 min, pH 7.4, efavirenz 0.01–50 μM, read-out: IC50, inhibition of net OCT2-mediated [14C]-metformin uptake
T1 construct: expressed in transfected cells; host or cells: MDCKII (MDCK-OCT2)
T1 sequence (O15244 1-555): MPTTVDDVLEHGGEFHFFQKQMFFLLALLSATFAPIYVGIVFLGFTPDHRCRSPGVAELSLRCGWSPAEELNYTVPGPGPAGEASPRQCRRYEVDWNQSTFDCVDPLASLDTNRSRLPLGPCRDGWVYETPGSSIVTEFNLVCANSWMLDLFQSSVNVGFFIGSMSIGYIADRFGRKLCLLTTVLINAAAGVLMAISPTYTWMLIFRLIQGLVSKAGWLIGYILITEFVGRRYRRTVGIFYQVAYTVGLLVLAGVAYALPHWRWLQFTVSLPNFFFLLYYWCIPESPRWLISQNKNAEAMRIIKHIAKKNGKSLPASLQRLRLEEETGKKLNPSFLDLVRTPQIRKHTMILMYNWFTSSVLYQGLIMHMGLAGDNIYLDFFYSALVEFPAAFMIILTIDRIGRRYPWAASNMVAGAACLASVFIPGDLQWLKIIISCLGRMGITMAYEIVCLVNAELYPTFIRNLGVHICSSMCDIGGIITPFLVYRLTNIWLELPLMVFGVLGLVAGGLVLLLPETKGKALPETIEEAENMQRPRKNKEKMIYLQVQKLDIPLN
Procedure: The singly-transfected OCT1, OCT2, MATE1 or control MDCK cells were seeded on 12-well plates at a density of 0.5 x 10^6 cells per well and cultivated in standard cultivation medium MEM (Gibco) + 10% FBS. Forty-eight hours after seeding, uptake experiments with radiolabelled metformin were performed. Cells were washed with 500 μl pre-warmed HBSS buffer of pH 7.4 (for OCTs) or 8.0 (for MATE1). Solutions of [^14C]-metformin (50 μM) in HBSS buffer of pH 7.4 or 8.0 with or without efavirenz were then added, and the resulting mixtures were left to stand for an accumulation period of 5 minutes. […] After the accumulation period, the solutions were aspirated and the cells were washed three times with 500 μl ice-cold HBSS buffer of pH 7.4 or 8.0 before being lysed with 0.02% sodium dodecyl sulphate (SDS). The intracellular accumulation of radioactivity was detected using a liquid scintillation counter (Tri-Carb 2910 TR Perkin Elmer), and protein concentrations in the cell lysates were measured by the BCA protein assay. Net transporter-mediated uptake was obtained by subtracting the accumulation of metformin in vector control cells from that in drug transporter-overexpressing cells.
A p value of ≤ 0.05 was considered statistically significant. […]

human OCT1 = test system: human OCT1; set-up: method as in PMID 18490433; details: 5 μM efavirenz, 1 min incubation; cited from earlier work
[2] = set-up: method as in PMID 16141277; details: humans, plasma proteins; cited from earlier work

## O=C1Nc2ccc(Cl)cc2[C@@](C#CC2CC2)(C(F)(F)F)O1 [efavirenz, Efavirenz]
OCT2 and MATE1; 2 nM MPP+, MDCK-OCT2-MATE1
  Effect on basolateral-to-apical transport of [3H]-MPP+: Inhibition
OCT2 and MATE1; 2 nM MPP+, MDCK-OCT2-MATE1 monolayers
  Effect on intracellular accumulation of [3H]-MPP+: unaffected
OCT2 and MATE1; 10 nM lamivudine, OCT2-MATE1 cells
  Effect on intracellular accumulation of [3H]-lamivudine: remained unaffected
OCT2 and MATE1; 10 nM lamivudine, basal to apical, MDCK-OCT2-MATE1
  Effect on transcellular transport of [3H]-lamivudine: significantly inhibited
MDCK-Co cells
  Effect on basolateral-to-apical transport of [3H]-MPP+: no inhibitory effect
[1]; humans
  Efavirenz concentration in the plasma seen in humans (median): 6.9 µM
  Efavirenz concentration in the plasma seen in humans (range): 0.4 to 48 µM
[1]; therapeutically, responding HIV-positive patients
  Average plasma concentration (cp) of efavirenz: ~ 8.7 μM
OCT2
  IC50: 5.66 µM
Human OCT1
  Inhibitory effect on OCT1 with MPP+ as substrate: did not detect any inhibitory effect
[2]
  Median unbound percentage: 0.63%
